Results: patent publication US9951064B2, “Azaindazole compounds as inhibitors of T790M containing EGFR mutants” (Genentech, Inc., priority 2013, dated 2018)

Columns and labels:
[1] = molecular target: T1, EGFR del746-750 T790M (Homo sapiens, UniProt P00533, DEL746-750/T790M); test: EGFR del746-750 T790M biochemical assay (Caliper mobility shift); conditions: 5 μM ATP; apparent Ki (Morrison fit) converted by Cheng-Prusoff, Km of ATP 2.1 μM; read-out: EGFR(T790M/d746-750) Ki
T1 construct: purchased Carna Biosciences 08-528
T1 sequence (P00533 with tags, fused parts or gaps DEL746-750/T790M limits assumed): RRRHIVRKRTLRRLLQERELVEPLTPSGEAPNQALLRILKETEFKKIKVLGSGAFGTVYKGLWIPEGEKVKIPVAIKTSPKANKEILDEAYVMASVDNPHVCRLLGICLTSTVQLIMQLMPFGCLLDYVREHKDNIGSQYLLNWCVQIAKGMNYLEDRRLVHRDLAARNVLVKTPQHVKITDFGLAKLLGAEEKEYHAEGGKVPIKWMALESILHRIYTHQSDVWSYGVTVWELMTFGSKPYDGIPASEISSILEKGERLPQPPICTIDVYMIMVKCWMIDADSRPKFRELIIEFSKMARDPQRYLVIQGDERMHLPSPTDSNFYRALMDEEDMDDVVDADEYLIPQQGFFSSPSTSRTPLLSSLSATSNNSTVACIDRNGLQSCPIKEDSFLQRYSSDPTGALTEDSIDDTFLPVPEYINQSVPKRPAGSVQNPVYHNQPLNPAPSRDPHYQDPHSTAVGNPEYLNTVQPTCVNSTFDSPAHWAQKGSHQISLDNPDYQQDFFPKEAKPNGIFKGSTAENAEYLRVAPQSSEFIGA
In short: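 Caliper mobility-shift read-out, with product electrophoretically resolved from substrate and measured. Reactions were quenched with 80 mM EDTA after 30 min at 22 °C.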

[2] = system: H1975 (EGFR T790M/L858R) cell proliferation; test: H1975 proliferation assay (Cell Titer-Glo); type: cell-based; conditions: Homo sapiens, NCI-H1975, 72 h, NCI-H1975 cells, 72 hour incubation, read-out: H1975 antiproliferative EC50
Experimental: H1975 Proliferation Assays
All cell culture reagents were purchased from Invitrogen/Gibco. Cells are cultured at 37° C. at 5% CO2 and split as recommended by ATCC.

[3] = molecular target: T2, EGFR T790M L858R (Homo sapiens, UniProt P00533, L858R/T790M); test: EGFR T790M L858R biochemical assay (Caliper mobility shift); conditions: 5 μM ATP; apparent Ki (Morrison fit) converted by Cheng-Prusoff, Km of ATP 1.3 μM
T2 construct: purchased Life Technologies PV4879
T2 sequence (P00533 25-1210 T790M/L858R): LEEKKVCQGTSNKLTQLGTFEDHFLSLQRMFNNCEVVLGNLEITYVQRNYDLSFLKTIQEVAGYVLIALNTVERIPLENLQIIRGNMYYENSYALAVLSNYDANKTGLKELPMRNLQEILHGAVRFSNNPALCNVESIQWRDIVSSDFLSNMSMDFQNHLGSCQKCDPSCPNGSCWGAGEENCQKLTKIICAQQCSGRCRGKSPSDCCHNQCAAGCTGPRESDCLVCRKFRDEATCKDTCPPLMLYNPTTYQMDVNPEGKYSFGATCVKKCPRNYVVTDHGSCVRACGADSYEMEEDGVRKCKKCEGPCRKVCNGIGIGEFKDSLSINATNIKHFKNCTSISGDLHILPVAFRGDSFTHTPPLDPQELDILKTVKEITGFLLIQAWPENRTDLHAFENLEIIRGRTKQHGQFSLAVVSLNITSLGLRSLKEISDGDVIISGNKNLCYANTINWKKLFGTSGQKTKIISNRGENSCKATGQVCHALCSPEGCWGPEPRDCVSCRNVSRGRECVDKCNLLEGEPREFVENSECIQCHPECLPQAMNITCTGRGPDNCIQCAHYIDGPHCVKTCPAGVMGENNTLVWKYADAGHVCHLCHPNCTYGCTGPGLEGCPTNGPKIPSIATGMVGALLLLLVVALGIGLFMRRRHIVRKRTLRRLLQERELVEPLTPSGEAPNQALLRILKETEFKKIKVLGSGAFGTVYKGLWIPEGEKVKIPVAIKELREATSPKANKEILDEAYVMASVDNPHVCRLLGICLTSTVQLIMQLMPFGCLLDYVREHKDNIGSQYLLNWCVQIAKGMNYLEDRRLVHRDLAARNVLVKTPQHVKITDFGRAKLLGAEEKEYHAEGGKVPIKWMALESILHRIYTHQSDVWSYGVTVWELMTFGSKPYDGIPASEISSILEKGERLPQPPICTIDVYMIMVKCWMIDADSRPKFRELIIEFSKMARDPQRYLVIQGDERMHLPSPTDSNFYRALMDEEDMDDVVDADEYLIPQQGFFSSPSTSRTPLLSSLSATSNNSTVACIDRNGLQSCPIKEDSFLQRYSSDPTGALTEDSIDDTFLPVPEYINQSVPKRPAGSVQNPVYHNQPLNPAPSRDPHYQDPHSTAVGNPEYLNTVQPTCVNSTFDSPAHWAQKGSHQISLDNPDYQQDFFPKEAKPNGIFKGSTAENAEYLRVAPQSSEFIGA
In short: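 Caliper mobility-shift read-out, electrophoretic separation of substrate from product, after a 30-minute kinase reaction at 22 °C. EDTA at 80 mM terminates each reaction.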

[4] = molecular target: T3, phosphor-EGFR in H1975(L585R/T790M) mutant EGFR expressing cells (Homo sapiens, UniProt P00533, L858R/T790M); test: H1975 pEGFR MSD cellular assay; type: cell-based; conditions: NCI-H1975 cells, serum starved, 1 hour compound incubation, pEGFR Tyr1068 MSD; read-out: HI975 pEGFR EC50
T3 construct: host or cells: NCI-H1975
T3 sequence (P00533 25-1210 T790M/L858R): as above
In short: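 Phospho-EGFR read by MSD electrochemiluminescence: capture with anti-pEGFR antibody (overnight, 4° C), detection with SULFO-TAG anti-total EGFR (1 hour, room temperature). Before lysis, H1975 cells starved of serum overnight got compound for 1 hour at 37° C, 0.5% DMSO final. EC50 via four-parameter logistic regression of percent inhibition.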

SMILES | Ki [1] [nM] | EC50 [2] [nM] | Ki [3] [nM] | EC50 [4] [nM]
CC(C)n1nc(N2CCC2)c2cnc(Nc3ccnc(-c4cnn(S(=O)(=O)C5CC5)c4)n3)cc21 [Example 54, 3-(azetidin-1-yl)-N-(2-(1-(cyclopropylsulfonyl)-1H-pyrazol-4-yl)pyrimidin-4-yl)-1-isopropyl-1H-pyrazolo[4,3-c]pyridin-6-amine] | 0.5 | 158 | 0.7 | 17.9
CC(C)n1nc(N2CCNC(=O)C2)c2cnc(Nc3ccnc(-c4cnn(S(=O)(=O)C5CC5)c4)n3)cc21 [Example 59, 4-(6-(2-(1-(cyclopropylsulfonyl)-1H-pyrazol-4-yl)pyrimidin-4-ylamino)-1-isopropyl-1H-pyrazolo[4,3-c]pyridin-3-yl)piperazin-2-one] | 0.5 | 738 | < 0.6 | 92.1
CC(C)n1nc(N2CC(CO)C2)c2cnc(Nc3ccnc(-c4cnn(S(=O)(=O)C5CC5)c4)n3)cc21 [Example 63, (1-(6-(2-(1-(cyclopropylsulfonyl)-1H-pyrazol-4-yl)pyrimidin-4-ylamino)-1-isopropyl-1H-pyrazolo[4,3-c]pyridin-3-yl)azetidin-3-yl)methanol] | 0.5 | 271 | < 0.6 | 18.5
CC[C@H](C)n1nc(N2CC3(COC3)C2)c2cnc(Nc3ccnc(OCC(C)(C)S(C)(=O)=O)n3)cc21 [Example 71, [1-((S)-sec-Butyl)-3-(2-oxa-6-azaspiro[3.3]hept-6-yl)-1H-pyrazolo[4,3-c]pyridin-6-yl]-[2-(2-methanesulfonyl-2-methylpropoxy)pyrimidin-4-yl]amine] | 13.2 | 785 | 4.7 | 256
CC(C)n1nc(N2CCOC2=O)c2cnc(Nc3ccnc(-c4cnn(S(=O)(=O)C5CC5)c4)n3)cc21 [Example 72, 3-(6-(2-(1-(Cyclopropylsulfonyl)-1H-pyrazol-4-yl)pyrimidin-4-ylamino)-1-isopropyl-1H-pyrazolo[4,3-c]pyridin-3-yl)oxazolidin-2-one] | 0.5 | 206 | 0.7 | 28.1
CC(C)n1nc(N2CC3CCC(C2)O3)c2cnc(Nc3ccnc(-c4cnn(S(=O)(=O)C5CC5)c4)n3)cc21 [Example 73, 3-(8-Oxa-3-azabicyclo[3.2.1]octan-3-yl)-N-(2-(1-(cyclopropylsulfonyl)-1H-pyrazol-4-yl)pyrimidin-4-yl)-1-isopropyl-1H-pyrazolo[4,3-c]pyridin-6-amine] | 3.1 | 1210 | 3.3 | 124
CC(C)n1nc(NC(C)(C)C)c2cnc(Nc3ccnc(-c4cnn(S(=O)(=O)C5CC5)c4)n3)cc21 [Example 74, N^3-tert-Butyl-N^6-(2-(1-(cyclopropylsulfonyl)-1H-pyrazol-4-yl)pyrimidin-4-yl)-1-isopropyl-1H-pyrazolo[4,3-c]pyridine-3,6-diamine] | 106 | 4620 | 129 | 9260
CC(C)n1nc(N2CCN(C)C2=O)c2cnc(Nc3ccnc(N4CCC(O)C(F)C4)n3)cc21 (stereo not drawn) [Example 76, 1-(6-(2-(cis-3-Fluoro-4-hydroxypiperidin-1-yl)pyrimidin-4-ylamino)-1-isopropyl-1H-pyrazolo[4,3-c]pyridin-3-yl)-3-methylimidazolidin-2-one] | 13.8 | 1180 | 5.1 | 752
CC(C)n1nc(N2CC(C)(O)C2)c2cnc(Nc3ccnc(-c4cnn(S(=O)(=O)C5CC5)c4)n3)cc21 [Example 82, 1-(6-(2-(1-(Cyclopropylsulfonyl)-1H-pyrazol-4-yl)pyrimidin-4-ylamino)-1-isopropyl-1H-pyrazolo[4,3-c]pyridin-3-yl)-3-methylazetidin-3-ol] | 1.2 | 289 | 1.4 | 108
CC(C)n1nc(N2CCN(C)C2=O)c2cnc(Nc3ccnc(-c4cnn(S(=O)(=O)C5CC5)c4)n3)cc21 [Example 83, 1-(6-(2-(1-(Cyclopropylsulfonyl)-1H-pyrazol-4-yl)pyrimidin-4-ylamino)-1-isopropyl-1H-pyrazolo[4,3-c]pyridin-3-yl)-3-methylimidazolidin-2-one] | 1.2 | > 10000 | 1.3 | 21.6
CC(C)n1nc(N2CC(C(C)(C)C(N)=O)C2)c2cnc(Nc3ccnc(N4CCC(C)(O)CC4)n3)cc21 [Example 84, 2-(1-(6-(2-(4-Hydroxy-4-methylpiperidin-1-yl)pyrimidin-4-ylamino)-1-isopropyl-1H-pyrazolo[4,3-c]pyridin-3-yl)azetidin-3-yl)-2-methylpropanamide] | 20.5 | > 10000 | 6.7 | 2140
CC(C)n1nc(N2CC(O)C(F)(F)C2)c2cnc(Nc3ccnc(N4CCC(C)(O)CC4)n3)cc21 (centres unmarked) [Example 85, 1-(4-(3-(3,3-Difluoro-4-hydroxypyrrolidin-1-yl)-1-isopropyl-1H-pyrazolo[4,3-c]pyridin-6-ylamino)pyrimidin-2-yl)-4-methylpiperidin-4-ol] | 15.5 | 1330 | 5.5 | 308
CC(C)n1nc(N2CC(N)CC2=O)c2cnc(Nc3ccnc(N4CCC(C)(O)CC4)n3)cc21 (centres unmarked) [Example 86, 4-Amino-1-(6-(2-(4-hydroxy-4-methylpiperidin-1-yl)pyrimidin-4-ylamino)-1-isopropyl-1H-pyrazolo[4,3-c]pyridin-3-yl)pyrrolidin-2-one] | 29.1 | > 10000 | 13.3 | 1940
CC(n1nc(N2CC3(COC3)C2)c2cnc(Nc3ccnc(N4CCC(C)(O)CC4)n3)cc21)C(F)(F)F (centres unmarked) [Example 87, 4-Methyl-1-[4-[(3-[2-oxa-6-azaspiro[3.3]heptan-6-yl]-1-(1,1,1-trifluoropropan-2-yl)-1H-pyrazolo[4,3-c]pyridin-6-yl)amino]pyrimidin-2-yl]piperidin-4-ol] | 11.4 | 3290 | 6.4 | 472
CCC(C)n1nc(N2CCS(=N)(=O)CC2)c2cnc(Nc3ccnc(N4CCC(C)(O)CC4)n3)cc21 (centres unmarked) [Example 89, 4-[1-(sec-Butyl)-6-[[2-(4-hydroxy-4-methylpiperidin-1-yl)pyrimidin-4-yl]amino]-1H-pyrazolo[4,3-c]pyridin-3-yl]-1-imino-4-thiomorpholin-1-one] | 46.9 | 9980 | 26.5 | 5260
CCC(C)n1nc(N2CCNC(=O)C2)c2cnc(Nc3ccnc(N4CCC(C)(O)CC4)n3)cc21 (centres unmarked) [Example 92, 4-(1-sec-Butyl-6-(2-(4-hydroxy-4-methylpiperidin-1-yl)pyrimidin-4-ylamino)-1H-pyrazolo[4,3-c]pyridin-3-yl)piperazin-2-one] | 9.5 | 1760 | 3.8 | 788
CC[C@@H](C)n1nc(N2CC3(COC3)C2)c2cnc(Nc3ccnc(OCC(C)(C)S(C)(=O)=O)n3)cc21 [Example 96, [1-((R)-sec-Butyl)-3-(2-oxa-6-azaspiro[3.3]hept-6-yl)-1H-pyrazolo[4,3-c]pyridin-6-yl]-[2-(2-methanesulfonyl-2-methylpropoxy)pyrimidin-4-yl]amine] | 17.2 | 1240 | 4.6 | 387
